From US20080008707A1, “Denatured collagen peptides and uses thereof” (Cell-Matrix, Inc., priority 2006, published 2008)
Marks after values point to notes of the source that are not given here. Square brackets hold non-standard residues; d marks the D form. Ends that are not written are not given here. Hyp = O=C(O)[C@@H]1C[C@@H](O)CN1

Columns and labels:
[1] = test system: D93 binding to human denatured-collagen IV; assay: Competition ELISA: synthetic peptides blocking D93 binding to heat denatured collagen IV
Procedure: (§1) The ELISA was conducted as follows: wells of a 96-well microtiter plate (Immulon, 4 HBX flat-bottomed, Thermo Electron Corporation, Waltham, Mass.) were coated with 100 μL/well of dn-collagen IV at 10 μg/mL in Phosphate Buffered Saline (PBS) overnight at 4° C. The plate was washed 3 times (3×) with PBS containing 0.05% (v/v) Tween-20 (PBST) using an automated plate washer.
(§2) The plate was blocked by adding 300 μL/well of 1% BSA (w/v) in PBS for 1 hour at 25° C. followed by washing 3× in PBST as above.
(§3) Solutions of D93 or HUI77 were prepared with various concentrations of peptide or antibody inhibitor and incubate for 15 minutes. D93 or HUI77 was prepared at 200 ng/mL in 1% BSA/PBS.
(§4) For antibody blocking studies using synthetic peptides: peptide inhibitor stock solutions were prepared at 2 mM, 0.2 mM, 0.02 mM, and 0.002 mM in 1% BSA/PBS. 500 μL of a 2 mM peptide solution in 1% BSA/PBS was prepared and diluted 1:10 in 500 μL a total of three times to make peptide inhibitor concentrations.
(§5) 200 μL of D93 or HUI77 at 200 ng/mL solution was combined with 200 μL of peptide or antibody inhibitor solution and incubated for 15 minutes at room temperature.
(§6) D93 or HUI77 with various concentrations of inhibitors (2 mM, 0.2 mM, 0.02 mM, and 0.002 mM) were added to microplate wells and incubated for 1 hour at 25° C. The plate was washed 3× in PBST as above.
(§7) To each microtiter plate well, 100 μL of diluted anti-human IgG or anti-mouse IgM conjugated to horseradish peroxidase (HRP) in PBST was added and incubated for one hour at 25° C.: (a) for D93: Goat anti-human IgG-HRP (Jackson ImmunoResearch, Catalog No. 109-035-088) was used at 1:20,000 and (b) for HUI77: Goat anti-mouse IgM-HRP was used at 1:4,000. Plates were washed 3× in PBST as above.
(§8) Tetramethylbenzidine (TMB) substrate (100 μL; Pierce Chemicals)) was added to wells and the plates were allowed to develop at room temperature for 15 minutes in the dark. Substrate development was stopped by adding 50 μL/well of 2N H2SO4. The microtiter […] plates were read at 450 nm within five minutes of adding the H2SO4. Reactivity was measured with a microplate reader (Molecular Devices, Sunnyvale, Calif.) at a wavelength of 450 nm and analyzed using SOFTMax® PRO4.0 (Molecular Devices). All samples were tested in triplicate.
(§9) Individual peptides with amino acid substitutions and deletions were also synthesized based on the primary and secondary peptide arrays. […] The inhibitory activity of the individual peptides was tested by ELISA as previously described to measure binding of D93 or HUI77 to denatured collagen where peptides and antibodies were prepared at a 2× concentration and pre-incubated for 15 minutes prior to adding to microtiter plates coated with dn-collagen.
(§10) 96-well plates were coated with 100 μL/well of denatured (dn) collagen IV at 10 μg/mL in phosphate buffered saline (PBS) overnight at 4° C. followed by washing the plates in an automated plate washer 3 times in PBS containing 0.05% (v/v) Tween-20 (PBST). Non-specific binding was prevented by blocking the wells by adding 300 μL/well of 1% bovine serum albumin (BSA) (w/v) in PBS for 1 hour (hr) at 25° C. The plates were washed as above.
(§11) Solutions of D93 and HUI77 antibodies were prepared with various concentrations of inhibitor and incubated for 15 minutes. Briefly, 20 mLs of D93 or HUI77 were prepared at 200 ng/mL in 1% BSA/PBS. Solutions of peptide inhibitors (2 mM, 0.2 mM, […]) were prepared in 1% BSA/PBS. Equal volumes of antibodies and peptide inhibitors were combined: 200 μL of D93 or HUI77 (200 ng/mL solution) with 200 μL of each peptide solution.
(§12) 100 μL/well of D93 or HUI77 at 100 ng/mL with various concentrations of inhibitors were added to the wells in triplicate and incubated for 1 hour at 25° C. The plates were washed as described above.
(§13) 100 μL/well of secondary horseradish peroxidase (HRP)-conjugated antibody in PBST was added to each well and incubated for 1 hour (hr) at 25° C. […]

[2] = test system: HUI77 binding to denatured collagen IV; assay: Competition ELISA: synthetic peptides blocking HUI77 binding to heat denatured collagen IV; set-up: species or system human
Procedure: as §1, §2, §3, §4, §5, §6, §7, §8, §9, §10, §11, §12, §13

[3] = peptide inhibitor concentration 1 μM, average of two studies, vs 1% BSA/PBS alone
[4] = peptide inhibitor concentration 10 μM, average of two studies, vs 1% BSA/PBS alone
[5] = peptide inhibitor concentration 100 μM, average of two studies, vs 1% BSA/PBS alone
[6] = peptide inhibitor concentration 1000 μM, asterisk (*): data from a separate assay
[7] = peptide inhibitor concentration 1000 μM, average of two studies, vs 1% BSA/PBS alone
[8] = peptide inhibitor concentration 10 μM, average of two studies
[9] = peptide inhibitor concentration 100 μM, average of two studies
[10] = peptide inhibitor concentration 1000 μM, average of two studies
[11] = peptide inhibitor concentration 100 μM, asterisk (*): data from a separate assay

Substance	% INHIBITION OF BINDING OF D93 TO HUMAN DENATURED-COLLAGEN IV [1, 3] [%]	% INHIBITION OF BINDING OF D93 TO HUMAN DENATURED-COLLAGEN IV [1, 4]	% INHIBITION OF BINDING OF D93 TO HUMAN DENATURED-COLLAGEN IV [1, 5] [%]	% INHIBITION OF BINDING OF D93 TO HUMAN DENATURED-COLLAGEN IV [1, 7] [%]	% INHIBITION OF BINDING OF HUI77 TO DENATURED COLLAGEN IV [2, 8] [%]	% INHIBITION OF BINDING OF HUI77 TO DENATURED COLLAGEN IV [2, 9] [%]	% INHIBITION OF BINDING OF HUI77 TO DENATURED COLLAGEN IV [2, 10] [%]	also measured
CTWPRHHTTDALL [SEQ ID NO: 39, reference compound]	4.5	1%	0	3.5	6.5	6.5	6.5	% INHIBITION OF BINDING OF D93 TO HUMAN DENATURED-COLLAGEN IV [1, 6]: 4.9%; % INHIBITION OF BINDING OF HUI77 TO DENATURED COLLAGEN IV [2, 6]: 11.1%
F-Hyp-G-P-Hyp-G-P-D-G-L-P-G-S-M-G-P-Hyp-G (F[Hyp]GP[Hyp]GPDGLPGSMGP[Hyp]G) [SEQ ID NO: 36]	11	43%	89.5	93.5	4.5	9	62	–
G-P-Hyp-G (GP[Hyp]G) [SEQ ID NO: 34]	9.5	6.5%	11	52	6.5	9	14	–
G-P-Hyp-G-P-Hyp-G-P-Y (GP[Hyp]GP[Hyp]GPY) [SEQ ID NO: 30]	33	82.5, %	94	94	8.5	12	78	% INHIBITION OF BINDING OF D93 TO HUMAN DENATURED-COLLAGEN IV ([1]; peptide inhibitor concentration 10 μM, asterisk (*): data from a separate assay): 79.9* %; % INHIBITION OF BINDING OF D93 TO HUMAN DENATURED-COLLAGEN IV [1, 11]: 90.3%; % INHIBITION OF BINDING OF HUI77 TO DENATURED COLLAGEN IV [2, 11]: 0%; % INHIBITION OF BINDING OF HUI77 TO DENATURED COLLAGEN IV [2, 6]: 63%
GPPG [SEQ ID NO: 35]	7	6%	3.5	7.5	2.5	8	3.5	–
GPPGPPG (GPXGPXG; MOD_RES (3) Hydroxyproline; MOD_RES (6) Hydroxyproline) [SEQ ID NO: 32]	–	–	–	–	–	–	–	% INHIBITION OF BINDING OF D93 TO HUMAN DENATURED-COLLAGEN IV ([1]; peptide inhibitor concentration 1 μM, average of two studies, vs 1% BSA/PBS alone, listed as 15 (32), 1 µM): 8%; % INHIBITION OF BINDING OF D93 TO HUMAN DENATURED-COLLAGEN IV ([1]; peptide inhibitor concentration 10 μM, average of two studies, vs 1% BSA/PBS alone, listed as 15 (32), 10 µM): 17%; % INHIBITION OF BINDING OF D93 TO HUMAN DENATURED-COLLAGEN IV ([1]; peptide inhibitor concentration 100 μM, average of two studies, vs 1% BSA/PBS alone, listed as 15 (32), 100 µM): 64%; % INHIBITION OF BINDING OF D93 TO HUMAN DENATURED-COLLAGEN IV ([1]; peptide inhibitor concentration 1000 μM, average of two studies, vs 1% BSA/PBS alone, listed as 15 (32), 1000 µM): 92.5%; % INHIBITION OF BINDING OF HUI77 TO DENATURED COLLAGEN IV ([2]; peptide inhibitor concentration 10 μM, average of two studies, listed as 15 (32), 10 µM): 6%; % INHIBITION OF BINDING OF HUI77 TO DENATURED COLLAGEN IV ([2]; peptide inhibitor concentration 100 μM, average of two studies, listed as 15 (32), 100 µM): 7.5%; % INHIBITION OF BINDING OF HUI77 TO DENATURED COLLAGEN IV ([2]; peptide inhibitor concentration 1000 μM, average of two studies, listed as 15 (32), 1000 µM): 77%
GPPGPPG [SEQ ID NO: 33]	–	–	–	–	–	–	–	% INHIBITION OF BINDING OF D93 TO HUMAN DENATURED-COLLAGEN IV ([1]; peptide inhibitor concentration 1 μM, average of two studies, vs 1% BSA/PBS alone, listed as 23 (33), 1 µM): 5%; % INHIBITION OF BINDING OF D93 TO HUMAN DENATURED-COLLAGEN IV ([1]; peptide inhibitor concentration 10 μM, average of two studies, vs 1% BSA/PBS alone, listed as 23 (33), 10 µM): 4.5%; % INHIBITION OF BINDING OF D93 TO HUMAN DENATURED-COLLAGEN IV ([1]; peptide inhibitor concentration 100 μM, average of two studies, vs 1% BSA/PBS alone, listed as 23 (33), 100 µM): 1.5%; % INHIBITION OF BINDING OF D93 TO HUMAN DENATURED-COLLAGEN IV ([1]; peptide inhibitor concentration 1000 μM, average of two studies, vs 1% BSA/PBS alone, listed as 23 (33), 1000 µM): 6.5%; % INHIBITION OF BINDING OF HUI77 TO DENATURED COLLAGEN IV ([2]; peptide inhibitor concentration 10 μM, average of two studies, listed as 23 (33), 10 µM): 1.5%; % INHIBITION OF BINDING OF HUI77 TO DENATURED COLLAGEN IV ([2]; peptide inhibitor concentration 100 μM, average of two studies, listed as 23 (33), 100 µM): 2%; % INHIBITION OF BINDING OF HUI77 TO DENATURED COLLAGEN IV ([2]; peptide inhibitor concentration 1000 μM, average of two studies, listed as 23 (33), 1000 µM): 1%
GPPGPPGP (GPXGPXGP; MOD_RES (3) Hydroxyproline; MOD_RES (6) Hydroxyproline) [SEQ ID NO: 31]	9.5	21%	77	92.5	7.5	12	44	–
Hyp-G-A-K-G-L-P-G-P-Hyp-G-P-Hyp-G-P-Y [SEQ ID NO: 2]	30	81%	93.5	93.5	7.5	18	–	% INHIBITION OF BINDING OF HUI77 TO DENATURED COLLAGEN IV ([2]; peptide inhibitor concentration 1000 μM, average of two studies, 1000 µM): 86%; % INHIBITION OF BINDING OF HUI77 TO DENATURED COLLAGEN IV ([2]; peptide inhibitor concentration 1000 μM, average of two studies, listed as 12 (2), 1000 µM): 86.5%
L-Hyp-G-F-Hyp-G (L[Hyp]GF[Hyp]G) [SEQ ID NO: 23]	10.5	6%	8	32	7	14.5	75	–
L-Hyp-G-P-Hyp-G (L[Hyp]GP[Hyp]G) [SEQ ID NO: 24]	6.5	12%	52.5	90	3	8	64	–
